Reference: US8691225B2, “Antibodies against the ectodomain of ErbB3 and uses thereof” (Merrimack Pharmaceuticals, Inc., priority 2007, dated 2014)
Where a chain is given by its changes, count along the chain named. Where two headings read alike, the source gives them in different places. Each block holds one molecule with its values, some of them ahead of it.

Key:
[1] = tested on: A549 subcutaneous xenograft tumors; assay: KRAS mutant A549 subcutaneous xenograft tumors; type: in vivo, mouse; conditions: Ab #6 300 μg every three days; erlotinib 25 mg/kg every day; taxol 20 mg/kg every 7 days
[2] = tested on: ACHN (a renal tumor cell line) xenograft tumors; assay: ACHN xenograft combination therapy; type: in vivo, mouse; conditions: Ab #6 300 μg IP every three days; erlotinib 25 mg/kg orally once daily
Experimental: In a first experiment, mice bearing ACHN (a renal tumor cell line) xenograft tumors are prepared by establishing tumors subcutaneously in the flanks of nude mice (Charles River Laboratories).

[3] = tested on: ErbB3 phosphorylation in AdrR cells; assay: inhibitor dose response of ligand-induced ErbB3 phosphorylation (ELISA); type: cell-based, human; conditions: for IC50: Homo sapiens, 10 min
Experimental: Phosphorylation of ErbB3 is measured by ELISA (R&D Systems, DYC1769-5, per manufacturers protocol) and IC50 values are determined using Prism (GraphPad Software Inc.).

[4] = tested on: DU145 (a prostate tumor cell line) xenograft tumors; assay: DU145 xenograft combination therapy; type: in vivo, mouse; conditions: Ab #6 300 μg IP every three days; taxol 20 mg/kg IP once per week
Experimental: In a second experiment, mice bearing DU145 (a prostate tumor cell line) xenograft tumors are prepared by establishing tumors subcutaneously in the flanks of nude mice (Charles River Laboratories). […] Again, tumor size is measured twice a week and measurements are used to calculate tumor volume.

[5] = tested on: SKOV3 subcutaneous xenograft tumors; assay: PI3K mutant SKOV3 subcutaneous xenograft tumors; type: in vivo, mouse; conditions: Ab #6 300 μg every three days; cisplatin 1.5 mg/kg; dosing after 30 day lag phase
Excerpt: SKOV3 (SKOV-3) is an ovarian cancer cell line that comprises a mutation that upregulates PI3K expression.

ErbB3 = ErbB3 (Homo sapiens, UniProt P21860); assay: paratope mapping: binding of Ab #6 scFv mutants to ErbB3; conditions: scFv format; compared with binding to Protein A
Experimental: FIG. 36 presents data from paratope mapping experiments.
This format is used to investigate the effect on ErbB3 binding of alanine (and in some cases phenylalanine) substitution mutations in the CDR loops.
All of the mutations are made using standard recombinant DNA techniques and binding of the mutants to ErbB3 is tested using standard screening techniques known in the art.

[6] = biological target: T1, heregulin binding to ErbB3 on MALME-3M cells (Homo sapiens, UniProt P21860); assay: biotinylated heregulin binding to MALME3M cells by FACS; type: cell-based; conditions: 5 μM antibody, 20 nM heregulin EGF
T1 construct: ErbB3 expressed on MALME-3M melanoma cells; host or cells: MALME-3M melanoma cells
Experimental: After 30 minutes, 50 μl of 40 nM biotinylated heregulin EGF is added to the cells and incubated for another 10 minutes on ice. This yields a final concentration of 5 μM antibody and 20 nM heregulin EGF. Cells are then washed twice with 500 μl BD stain buffer and incubated with 100 μl of a 1:200 dilution of streptavidin-PE (PE=phycoerythrin) (Invitrogen) in BD stain buffer for 45 minutes. Finally, cells are washed twice, resuspended in 300 μl of BD stain buffer and analyzed in a FACSCALIBUR flow cytometer. As a positive control, 1×10^5 MALME3M cells are incubated with 20 nM heregulin EGF for 10 minutes on ice, washed twice and incubated with a 1:200 dilution of streptavidin-PE for 45 minutes. In order to assess background staining from the streptavidin-PE conjugate, 1×10^5 MALME3M cells are incubated with 100 μl of a 1:200 dilution of streptavidin-PE only for 45 minutes.

IC50 ([3]; 25 nM BTC, read-out: IC50, BTC-induced ErbB3 phosphorylation): 360 nM
IC50 ([3]; 25 nM HRG, read-out: IC50, HRG-induced ErbB3 phosphorylation): 150 nM
Molecule: CS(=O)(=O)CCNCc1ccc(-c2ccc3ncnc(Nc4ccc(OCc5cccc(F)c5)c(Cl)c4)c3c2)o1 [Lapatinib]

IC50, BTC-induced ErbB3 phosphorylation ([3]; 25 nM BTC, 10 minutes): did not inhibit
Molecule: Pertuzumab

Effect on ErbB3 Binding of Ab #6 Mutations (ErbB3): no effect on binding
B1: M1: Ab #6 scFv mutant, H1 loop, Thr28Ala (antibody, chains of the INN, looked up, variant H:T28A, V domains shown)
VH: EVQLLESGGGLVQPGGSLRLSCAASGFAFSHYVMAWVRQAPGKGLEWVSSISSSGGWTLYADSVKGRFTISRDNSKNTLYLQMNSLRAEDTAVYYCTRGLKMATIFDYWGQGTLVTVSS
VL: QSALTQPASVSGSPGQSITISCTGTSSDVGSYNVVSWYQQHPGKAPKLIIYEVSQRPSGVSNRFSGSKSGNTASLTISGLQTEDEADYYCCSYAGSSIFVIFGGGTKVTVL
modifications: scFv

Effect on ErbB3 Binding of Ab #6 Mutations (ErbB3): no effect on binding
B3: M3: Ab #6 scFv mutant, CDR H1, His31Ala (antibody, chains of the INN, looked up, variant H:H31A, V domains shown)
VH: B1 VH with A28T, H31A
VL: B1 VL
modifications: scFv

Effect on ErbB3 Binding of Ab #6 Mutations (ErbB3): no effect on binding
B4: M5: Ab #6 scFv mutant, CDR H1, Tyr32Phe (antibody, chains of the INN, looked up, variant H:Y32F, V domains shown)
VH: B1 VH with A28T, Y32F
VL: B1 VL
modifications: scFv

The remaining lines, values behind:

Molecule: C#Cc1cccc(Nc2ncnc3cc(OCCOC)c(OCCOC)cc23)c1 [erlotinib, reference compound]
tumor growth inhibition [1]: insensitive
inhibition of tumor growth (tumor volume) [2]: inhibit tumor growth

Molecule: CC(=O)O[C@H]1C(=O)[C@@]2(C)[C@H]([C@H](OC(=O)c3ccccc3)[C@]3(O)C[C@H](OC(=O)[C@H](O)[C@@H](NC(=O)c4ccccc4)c4ccccc4)C(C)=C1C3(C)C)[C@]1(OC(C)=O)CO[C@@H]1C[C@@H]2O [taxol, reference compound]
inhibition of tumor growth (tumor volume) [4]: inhibited tumor growth
tumor growth inhibition [1]: insensitive

Molecule: N.N.[Cl][Pt][Cl] [cisplatin]
tumor growth inhibition [5]: able to inhibit the growth of the SKOV3 xenografts

B2: M4: Ab #6 scFv mutant, CDR H1, Tyr32Ala (antibody, chains of the INN, looked up, variant H:Y32A, V domains shown)
VH: B1 VH with A28T, Y32A
VL: B1 VL
modifications: scFv
Effect on ErbB3 Binding of Ab #6 Mutations (ErbB3): large decrease in binding (based on the three groupings shown in FIG. 36)

B5: Ab/Fab #3: a Fab version of Ab #3 (antibody, V domains shown)
VH: EVQLLESGGGLVQPGGSLRLSCAASGFTFSAYNMRWVRQAPGKGLEWVSVIYPSGGATRYADSVKGRFTISRDNSKNTLYLQMNSLRAEDTAVYYCARGYYYYGMDVWGQGTLVTVSS
VL: QSVLTQPPSASGTPGQRVTISCSGSDSNIGRNYIYWYQQFPGTAPKLLIYRNNQRPSGVPDRISGSKSGTSASLAISGLRSEDEAEYHCGTWDDSLSGPVFGGGTKLTVL
inhibition of heregulin binding to ErbB3 [6]: able to inhibit heregulin binding to ErbB3
